# In patent US8466104B2, “Therapeutically active alpha MSH analogues” (AbbVie Inc., priority 2005, dated 2013):
# Where “and” joins values, the source holds several entries; their conditions need not be identical. Identical values can stand only once. Entries after “also recorded” stand apart in the source; their conditions may differ. Like-named read-outs stand apart in the source and are kept apart here.
# Columns and labels:
# [1] = tested on: LPS induced TNF-α in plasma; experiment: Inhibition of LPS induced TNFa production in rats in vivo (experimental setup 2); parameters: species or system rat; conditions: for inhibitory effect on plasma TNF-a compared to native a-MSH / TNF-a concentration in plasma, % of the maximal response (LPS-Vehicle) / dose at which the maximal inhibitory effect on TNF-a is achieved: iv LPS infusion; for TNF-a concentration in plasma, % of the maximal response (LPS-Vehicle): 200 μg/kg body weight iv, 120 minutes after initiation of LPS infusion; for dose at which the maximal inhibitory effect on TNF-a is achieved: doses 50, 200, 1000 μg/kg tested
# Experimental: Inhibition of LPS Induced TNFa Production in Rats In Vivo
# Experimental animals. Female Wistar rats (220-240 g) are obtained from the Charles River, Sulzfeld, Germany, and housed in a temperature- (22-24° C.) and moisture-controlled (40-70%) room with a 12 h light-dark cycle (light on from 6:00 A.M. to 6:00 P.M.). The rats are maintained on a standard rodent diet with 140 mmol/kg of sodium, 275 mmol/kg potassium and 23% protein (Altromin International, Lage, Germany) and have free access to water.
# Animal preparation. […] After instrumentation, the animals are housed individually for 7-10 days until the day of the experiment.
# Experimental protocol. Prior to the experiments all rats are adapted to the restraining cage used for the experiments by training them for two periods of two hours each. On the day of the experiment, the animal is transferred to a restraining cage, and an intravenous infusion of vehicle solution containing 150 mM glucose is started. The infusion rate is 0.5 ml/h throughout the experiment. After a short adaptation period, infusion of lipopolysaccharide (LPS) is started. LPS (E coli serotype 0127 B8, L 3129, Sigma, St. Louis, USA) is given at a dose of 4 mg/kg body weight delivered as an i.v. infusion over 1 hour. Arterial blood samples of 0.3 ml are taken 60, 90, and 120 minutes after start of the LPS infusion and replaced immediately with heparinized blood from a normal donor rat.
# In addition to LPS infusion all rats are treated with a bolus injection of: • Vehicle (0.5 mL isotonic saline); • a-MSH in one of the following doses: 50 μg/kg bw; 200 μg/kg/bw or 1000 μg/kg bw; • Test compound in one of the following doses: 50 μg/kg bw; 200 μg/kg/bw or 1000 μg/kg bw.
# Measurement of TNF-α in plasma: The blood samples are collected in a prechilled test tube with 0.5 mM EDTA, pH 7.4, and 20×10^6 IU/ml aprotinin. After centrifugation at 4° C., plasma samples are transferred to pre-chilled test tubes and stored at −20° C. for later measurements of TNF-α. TNF-α in plasma is determined by an ELISA (Biotrak, Amersham, UK).
# Statistical analyses. Results are presented as means±SE. A two-way ANOVA for repeated measures is used to test for differences between groups. In case of P<0.05, the differences between corresponding periods are evaluated by unpaired t-tests with Bonferroni's correction of the level of significance.
# [2] = tested on: myocardial infarction induced by LAD occlusion in rats; experiment: Inhibition of myocardial infarction size induced by 60 minutes occlusion of the left anterior descending coronary artery in rats (experimental setup 5); format: in vivo, rat; conditions: for dose at which the maximal inhibitory effect on infarction size is achieved: 200 and 1000 μg/kg tested; for effect on myocardial infarction size (in contrast to / compared to a-MSH) / myocardial infarction size, necrotic area as % of area of risk: 3 hours after LAD-reperfusion
# Experimental: Inhibition of Myocardial Infarction Size, Induced by 60 Minutes Occlusion of the Left Anterior Descending Coronary Artery in Rats.
# Barrier-bred and specific pathogen-free female Wistar rats (250 g) are obtained from Charles River, Hannover, Germany. The animals are housed in a temperature (22-24° C.) and moisture (40-70%) controlled room with a 12-hour light-dark cycle (light on from 6:00 A.M. to 6:00 P.M.). All animals are given free access to tap water and a pelleted rat diet containing approximately 140 mmol/kg of sodium, 275 mmol/kg potassium and 23% protein (Altromin catalogue no. 1310, Altromin International, Lage, Germany). […] One week later the Rats are anaesthetized in an inhalation chamber with 4% isoflurane in O2. After insertion of an endotracheal tube the animal is artificially ventilated with 1.0% isoflurane in O2 using af Hugo Basile Rodent ventilator. Tidal volume is 8-10 ml/kg b.w. and respiratory rate 75 […], which maintains arterial pH between 7.35 and 7.45. During surgery the animal is placed on a heated table that maintains rectal temperature at 37-38° C. Standard ECG (second lead) is measured using a Hugo Sachs ECG Coupler and collected on line at 4,000 Hz in PowerLab. After parasternal thoracotomy and opening of the pericardium the left anterior descending coronary artery (LAD) is localized visually. An atraumatic 6-0 silk suture with an occluder that allows reopening of the ligature is placed around the LAD between the pulmonary trunk and the lower right end of the left auricle. After 10 minutes the left anterior descending coronary artery (LAD) is occluded. Successful occluding is confirmed by alterations in ECG (ST-segment elevation and increase in R-wave amplitude) and by fall in MAP. Reperfusion is made after 60 minutes by opening the occluder. Control rats are sham-operated.
# The rats are subjected to one of the following i.v treatments: • Vehicle: 0.5 ml 150 mM NaCl. • a-MSH: 200 μg or 1000 μg a-melanocyte stimulating hormone/kg b.w. in 0.5 ml 150 mM NaCl.
# Test compound 200 μg or 1000 μg test compound/kg b.w. in 0.5 ml 150 mM NaCl.
# Treatment is given 5 minutes prior to reperfusion.
# The rats are kept anaesthetized after the ischemia/reperfusion and re-occluding of the LAD is performed after three hours reperfusion. During this period ECG and MAP are measured continuously. Then Evans Blue dye (1 ml; 2% w/v) is administered i.v. to determine the size of the ischemic area. The heart is removed and cut into horizontal slices to determine the size of the ischemic area and to separate the ischemic myocardium from the non-ischemic myocardium. The ischemic area is isolated and incubated in a 0.5% triphenyltetrazolium chloride solution for 10 minutes at 37° C. The size of the necrotic tissue is then measured by used of a computerized image program. An additional setup of animals are treated with buprenorphine post-surgical and returned to there cages for measurement of left ventricular end diastolic pressure (LVEDP) two weeks later in order to evaluate the effect of the pharmacological treatment on the development of congestive heart failure. LVEDP is measured using a 2F microtip catheters inserted into the left ventricle via the right carotid artery. Isoflurane concentration is adjusted to stabilize mean arterial pressure (MAP) at 85-90 mmHg.
# Data are presented as mean±S.E. Within group comparisons are analysed with Student's paired t test. Between group comparisons are performed by one way analysis of variance followed by Fishers Least Significant Difference test. Differences are considered significant at the 0.05 level.
# [3] = 14 days after 60 minutes occlusion of LAD
substance,measurement,setting,value
Ac-Lys-Lys-Lys-Lys-Lys-Lys-Ser-Tyr-Ser-Met-Glu-His-Phe-Arg-Trp-Gly-Lys-Pro-Val-NH2 (Ac-KKKKKKSYSMEHFRWGKPV-NH2) [a-MSH analogue #1],reduction of TNF-a accumulation during iv infusion of LPS,[1],reduce TNF-a accumulation
same,inhibitory effect on plasma TNF-a compared to native a-MSH,[1],markedly more pronounced
same,"TNF-a concentration in plasma, % of the maximal response (LPS-Vehicle)",[1],9±1%
same,dose at which the maximal inhibitory effect on TNF-a is achieved,[1],200 μg/kg body weight
same,inhibitory effect on plasma TNF-a compared to native a-MSH,[1]; listed as SEQ ID NO: 1*,higher degree
same,reduction of TNF-a accumulation during iv infusion of LPS,[1]; listed as SEQ ID NO: 1*,significantly inhibit
same,reduction in infarction size compared to Vehicle treated rats,[2]; 200 μg/kg body weight,~30%
same,reduction in infarction size compared to Vehicle treated rats,[2]; 1000 μg/kg body weight,~30%
same,dose at which the maximal inhibitory effect on infarction size is achieved,[2],200 μg/kg body weight
same,effect on myocardial infarction size (in contrast to / compared to a-MSH),[2],reduces the myocardial infarction size
same,"myocardial infarction size, necrotic area as % of area of risk",[2]; 200 μg/kg body weight iv,35.7±5.6 % of area of risk
same,"myocardial infarction size, necrotic area as % of area of risk",[2]; 1000 μg/kg body weight iv,35.0±4.4 % of area of risk
same,effect on myocardial infarction size (in contrast to / compared to a-MSH),[2]; listed as SEQ ID NO: 1,reduced the infarction size to a higher degree
same,effect on LVEDP / post-infarctional congestive heart failure,[2]; [3],marked reduction in LVEDP
same,left ventricular end diastolic pressure (LVEDP),"[2]; 14 days after 60 minutes occlusion of LAD, 200 μg/kg bw",10.4±2.9 mmHg
"Ac-Lys-Lys-Lys-Lys-Lys-Lys-Ser-Tyr-Ser-Nle-Glu-His-(D-Phe)-Arg-Trp-Gly-Lys-Pro-Val-NH2 (KKKKKKSYSXEHFRWGKPV; N-acetyl, Nle, D-Phe, C-amide) [a-MSH analogue #2]",reduction of TNF-a accumulation during iv infusion of LPS,[1],reduce TNF-a accumulation
same,inhibitory effect on plasma TNF-a compared to native a-MSH,[1],markedly more pronounced
same,"TNF-a concentration in plasma, % of the maximal response (LPS-Vehicle)",[1],9±1%
same,dose at which the maximal inhibitory effect on TNF-a is achieved,[1],200 μg/kg body weight
same,inhibitory effect on plasma TNF-a compared to native a-MSH,[1]; listed as SEQ ID NO: 5*,higher degree
same,reduction of TNF-a accumulation during iv infusion of LPS,[1]; listed as SEQ ID NO: 5*,significantly inhibit
same,reduction in infarction size compared to Vehicle treated rats,[2]; 200 μg/kg body weight,~27%
same,dose at which the maximal inhibitory effect on infarction size is achieved,[2],200 μg/kg body weight
same,effect on myocardial infarction size (in contrast to / compared to a-MSH),[2],reduces the myocardial infarction size
same,"myocardial infarction size, necrotic area as % of area of risk",[2]; 200 μg/kg body weight iv,37.4±5.1 % of area of risk
same,effect on myocardial infarction size (in contrast to / compared to a-MSH),[2]; listed as SEQ ID NO: 5,reduced the infarction size to a higher degree
same,effect on LVEDP / post-infarctional congestive heart failure,[2]; [3],marked reduction in LVEDP
"Ac-Lys-Lys-Lys-Lys-Lys-Lys-Ser-Tyr-Ser-Nle-Glu-His-D-Nal-Arg-Trp-Gly-Lys-Pro-Val-NH2 (KKKKKKSYSXEHXRWGKPV; not fully specified; N-acetyl, Nle, D-Nal, C-amide) [a-MSH analogue #3]",reduction of TNF-a accumulation during iv infusion of LPS,[1],reduce TNF-a accumulation
same,inhibitory effect on plasma TNF-a compared to native a-MSH,[1],markedly more pronounced
same,"TNF-a concentration in plasma, % of the maximal response (LPS-Vehicle)",[1],11±3%
same,dose at which the maximal inhibitory effect on TNF-a is achieved,[1],200 μg/kg body weight
same,inhibitory effect on plasma TNF-a compared to native a-MSH,[1]; listed as SEQ ID NO: 9*,higher degree
same,reduction of TNF-a accumulation during iv infusion of LPS,[1]; listed as SEQ ID NO: 9*,significantly inhibit
same,reduction in infarction size compared to Vehicle treated rats,[2]; 200 μg/kg body weight,~24%
same,dose at which the maximal inhibitory effect on infarction size is achieved,[2],200 μg/kg body weight
same,effect on myocardial infarction size (in contrast to / compared to a-MSH),[2],reduces the myocardial infarction size
same,"myocardial infarction size, necrotic area as % of area of risk",[2]; 200 μg/kg body weight iv,39.0±3.4 % of area of risk
same,effect on myocardial infarction size (in contrast to / compared to a-MSH),[2]; listed as SEQ ID NO: 9,reduced the infarction size to a higher degree
same,effect on LVEDP / post-infarctional congestive heart failure,[2]; [3],marked reduction in LVEDP
"Ser-Tyr-Ser-Met-Glu-His-Phe-Arg-Trp-Gly-Lys-Pro-Val [a-MSH, reference compound]",reduction of TNF-a accumulation during iv infusion of LPS,[1],reduce TNF-a accumulation; also recorded: reduce TNF-α accumulation
same,"TNF-a concentration in plasma, % of the maximal response (LPS-Vehicle)",[1],17±3% and 17±30%
same,dose at which the maximal inhibitory effect on TNF-a is achieved,[1],200 μg/kg body weight
